Values after ≈ are worked out from the molar mass of the structure shown. Where two headings read alike, the source gives them in different places. Where only a bound is given, the exact number is not on record here.

Holding throughout (format): cell-based
In series [1] the test system is Mycobacterium tuberculosis H37Rv. Kind of series: Microplate Alamar Blue assay (MABA) MIC, M. tuberculosis. The conditions noted are these: read-out: MIC Mycobacterium tuberculosis H37Rv. An excerpt:
(§1) Minimal inhibitory concentrations (MICs) in Mycobacterium tuberculosis H37Rv and Mycobacterium avium ATCC 25291 were quantified using microplate Alamar Blue assays as described (MABA; [Collins, L. & Franzblau, S. (1997) Microplate Alamar Blue assay versus BACTEC 460 system for high-throughput screening of compounds against Mycobacterium tuberculosis and Mycobacterium avium. Antimicrob. Agents Chemother. 41, 1004-1009]).
(In general: The colour change of resazurin is a common sign of viable cells or microbes.)

The test system of series [2] is Mycobacterium avium ATCC 25291. Kind of series: Microplate Alamar Blue assay (MABA) MIC, M. avium. The conditions noted are these: ATCC25291, M. avium ATCC 25291.
Description: as §1

The test system of series [3] is Mycobacterium smegmatis ATCC 19420. Kind of series: Broth microdilution MIC, M. smegmatis. The conditions noted are these: Mycolicibacterium smegmatis. An excerpt:
MICs in Mycobacterium smegmatis ATCC 19420 and Mycobacterium smegmatis ATCC 19420 derivatives were quantified using broth microdilution assays as described [Clinical and Laboratory Standards Institute (CLSI/NCCLS) (2009) Methods for Dilution Antimicrobial Susceptibility Tests for Bacteria That Grow Aerobically; Approved Standard, Eighth Edition. CLIS Document M07-A8 (CLIS, Wayne Pa.)].
A general note: Broth dilution looks for growth in wells or tubes with falling amounts of substance.

Series [4] has as its system Vero E6 ATCC CRL1586 cells. The series can be described thus: Mammalian-cell cytotoxicity, minimal cytotoxic concentration (CellTiter96). As to the method: Minimal cytotoxic concentrations (MCCs) against mammalian cells in culture were determined using Vero E6 ATCC CRL1586 cells and the CellTiter96 assay kit (Promega, Inc.). […]
Where [5] appears, read: ATCC19420, M. smegmatis ATCC 19420, read-out: MIC Mycobacterium smegmatis ATCC 19420.
Where [6] appears, read: ATCC19420, broth microdilution assays, M. smegmatis ATCC19420, read-out: Inhibition of mycobacterial growth in culture (MICs).

As for `O=C(N[C@@H](Cc1ccccc1)C(=O)Nc1cc(F)ccc1N1CCNCC1)c1ccccc1F` (racemic) [IX-214b], the MIC in series [1] amounted to 12.5 µg/mL (≈ 26.9 µM); in series [2], 12.5 µg/mL (≈ 26.9 µM); in series [3] (setting [5]), 6.25 µg/mL (≈ 13.5 µM).
On to `O=C(N[C@@H](Cc1ccccc1)C(=O)Nc1cc(Cl)ccc1N1CCNCC1)c1ccccc1F` (racemic) [IX-274b], for which the MIC in series [1], in series [2] and in series [3] (setting [5]) was 6.25 µg/mL (≈ 13 µM) in each case.
As for `O=C(NC(Cc1ccccc1)C(=O)Nc1ccccc1F)c1ccccc1` [AAP3, Nα-benzoyl-N-(2-fluorophenyl)-D/L-phenylalaninamide], the MIC in series [3] (setting [6]) was 1.56 µg/mL (≈ 4.3 µM).
The same measure, in the same setting: the result for `O=C(NC(Cc1ccccc1)C(=O)Nc1ccccc1)c1ccccc1` [AAP4, Nα-benzoyl-N-phenyl-D/L-phenylalaninamide] reads 0.78 µg/mL (≈ 2.26 µM); that for `O=C(NC(Cc1ccccc1)C(=O)Nc1ccncc1)c1ccccc1` [AAP5, Nα-benzoyl-N-(4-pyridyl)-D/L-phenylalaninamide], 12.5 µg/mL (≈ 36.2 µM).
For the compound `O=C(NC(Cc1ccccc1)C(=O)Nc1ccccn1)c1ccccc1` (stereo not shown) [AAP6], in series [3] (setting [6]), the MIC was found to be 1.56 µg/mL (≈ 4.52 µM).
Consider `COc1cccc(NC(=O)C(Cc2ccccc2)NC(=O)c2ccccc2)c1C` (stereo not shown) [I-18], for which the MIC is more than 50 µg/mL in series [1], more than 50 µg/mL in series [2] and 0.78 µg/mL (≈ 2.01 µM) in series [3] (setting [5]). In addition, the “MCC mammalian cells Vero E6 ATCC CRL1586” value in series [4] was more than 100 µg/mL.
As to `CCOc1cccc(C(=O)NC(Cc2ccccc2)C(=O)Nc2ccccc2C)c1` (stereo not shown) [I-37], the figures for the MIC in series [1] and in series [3] (setting [5]) were more than 50 µg/mL and 25 µg/mL (≈ 62.1 µM), respectively. In series [4], the “MCC mammalian cells Vero E6 ATCC CRL1586” value was 5 µg/mL.
As for `Cc1cccc(C(=O)NC(Cc2ccccc2)C(=O)Nc2ccccc2C)c1` (stereo not shown) [I-113], the values for the MIC in series [1] and in series [3] (setting [5]) were more than 50 µg/mL and 1.56 µg/mL (≈ 4.19 µM), respectively. Also, the “MCC mammalian cells Vero E6 ATCC CRL1586” value in series [4] is more than 100 µg/mL.
As to `CCc1cccc(C(=O)NC(Cc2ccccc2)C(=O)Nc2ccccc2C)c1` (stereo not shown) [I-124], the MIC in series [1] is more than 50 µg/mL; in series [3] (setting [5]) it was 25 µg/mL (≈ 64.7 µM). In series [4], the “MCC mammalian cells Vero E6 ATCC CRL1586” value was more than 39 µg/mL.
For `Cc1ccccc1NC(=O)C(Cc1ccc(N2CCOCC2)cc1)NC(=O)c1ccccc1` (stereo not shown) [I-188], in that order: 25 µg/mL (≈ 56.4 µM), 6.25 µg/mL (≈ 14.1 µM) and 35 µg/mL.
The matching figures for `Cc1c(NC(=O)C(Cc2ccccc2)NC(=O)c2ccccc2)cccc1-n1cncn1` (stereo not shown) [I-204]: 25 µg/mL (≈ 58.8 µM), 3.12 µg/mL (≈ 7.34 µM) and more than 100 µg/mL.
The matching figures for `O=C(NC(Cc1ccccc1)C(=O)Nc1ccccc1-n1ccnn1)c1ccccc1` (stereo not shown) [I-214]: more than 50 µg/mL, 3.12 µg/mL (≈ 7.59 µM) and more than 100 µg/mL.
Regarding `Cc1c(NC(=O)C(Cc2ccccc2)NC(=O)c2ccccc2)cccc1-n1ccnn1` (stereo not shown) [I-215], the MIC in series [1] was more than 50 µg/mL; in series [3] (setting [5]) it was 3.12 µg/mL (≈ 7.34 µM). In series [4], the “MCC mammalian cells Vero E6 ATCC CRL1586” value was more than 100 µg/mL.
For `O=C(NC(Cc1ccccc1)C(=O)Nc1ccccc1-n1cnnn1)c1ccccc1` (stereo not shown) [I-225], in that order: more than 50 µg/mL, 6.25 µg/mL (≈ 15.2 µM) and more than 100 µg/mL.
For `Cc1c(NC(=O)C(Cc2ccccc2)NC(=O)c2ccccc2)cccc1-n1cnnn1` (stereo not shown) [I-226], in that order: more than 50 µg/mL, 0.78 µg/mL (≈ 1.83 µM) and more than 100 µg/mL.
For `O=C(NC(Cc1ccc(O)cc1)C(=O)Nc1cccc2cnccc12)c1ccccc1` (stereo not shown) [IX-19, N-(3-(4-hydroxyphenyl)-1-(isoquinolin-5-ylamino)-1-oxopropan-2-yl)benzamide], in that order: 6.25 µg/mL (≈ 15.2 µM), 0.39 µg/mL (≈ 0.948 µM) and 42 µg/mL.
For `Cc1ccccc1NC(=O)C(Cc1ccc(O)c(O)c1)NC(=O)c1ccccc1` (stereo not shown) [IX-25, N-(3-(3,4-dihydroxyphenyl)-1-oxo-1-(o-tolylamino)propan-2-yl)benzamide], in series [3] (setting [5]), the MIC is 1.56 µg/mL (≈ 4 µM). Moreover, in series [4], the “MCC mammalian cells Vero E6 ATCC CRL1586” value was 21 µg/mL.
Regarding `Cc1ccc(Cl)cc1NC(=O)[C@@H](Cc1ccccc1)NC(=O)c1ccccc1F` [IX-55a], the MIC in series [1] stood at 0.78 µg/mL (≈ 1.9 µM); in series [2] it was 0.78 µg/mL (≈ 1.9 µM); in series [3] (setting [5]), 0.073 µg/mL (≈ 0.178 µM).
As for `Cc1ccc(Cl)cc1NC(=O)[C@H](Cc1ccccc1)NC(=O)c1ccccc1F` [IX-55b], the MIC in series [1] is more than 50 µg/mL; in series [2] it was more than 50 µg/mL; in series [3] (setting [5]), 25 µg/mL (≈ 60.8 µM).
With `O=C(NC(Cc1ccccc1)C(=O)Nc1cccc2ncccc12)c1ccccc1F` (stereo not shown) [IX-58, 2-fluoro-N-(1-oxo-3-phenyl-1-(quinolin-5-ylamino)propan-2-yl)benzamide], the MIC in series [3] (setting [5]) turned out to be 1.56 µg/mL (≈ 3.77 µM). Besides, in series [4], the “MCC mammalian cells Vero E6 ATCC CRL1586” value was 78 µg/mL.
On to `Cc1ccccc1NC(=O)C(Cc1ccc(O)cc1)NC(=O)c1ccccc1C` (stereo not shown) [IX-66, N-(3-(4-hydroxyphenyl)-1-oxo-1-(o-tolylamino)propan-2-yl)-2-methylbenzamide], for which the MIC is 50 µg/mL (≈ 129 µM) in series [1] and 1.56 µg/mL (≈ 4.02 µM) in series [3] (setting [5]). Besides, in series [4], the “MCC mammalian cells Vero E6 ATCC CRL1586” value was more than 100 µg/mL.
Turning to `O=C(NC(Cc1ccc(O)cc1)C(=O)Nc1cccc2c1OCO2)c1ccccc1Br` (stereo not shown) [IX-125, N-(1-(benzo[d][1,3]dioxol-4-ylamino)-3-(4-hydroxyphenyl)-1-oxopropan-2-yl)-2-bromobenzamide], the MIC was determined as 25 µg/mL (≈ 51.7 µM) in series [1], 50 µg/mL (≈ 103 µM) in series [2] and 1.56 µg/mL (≈ 3.23 µM) in series [3] (setting [5]).
For `CC(=O)N1CCN(c2ccccc2NC(=O)C(Cc2ccccc2)NC(=O)c2ccccc2)CC1` (stereo not shown) [IX-236, N-(1-((2-(4-acetylpiperazin-1-yl)phenyl)amino)-1-oxo-3-phenyl-propan-2-yl)benzamide], the MIC was 6.25 µg/mL (≈ 13.3 µM) in series [1], 6.25 µg/mL (≈ 13.3 µM) in series [2] and 0.195 µg/mL (≈ 0.414 µM) in series [3] (setting [5]).
For the compound `CNC(=O)N1CCN(c2ccccc2NC(=O)C(Cc2ccccc2)NC(=O)c2ccccc2)CC1` (stereo not shown) [IX-238, 4-(2-(2-benzamido-3-phenylpropanamido)phenyl)-N-methyl-piperazine-1-carboxamide], the MIC in series [1] is 1.56 µg/mL (≈ 3.21 µM); in series [2] it was 1.56 µg/mL (≈ 3.21 µM); in series [3] (setting [5]) it was 0.195 µg/mL (≈ 0.402 µM).
As to `O=C(NC(Cc1ccccc1)C(=O)Nc1cc(F)ccc1N1CCN(CCO)CC1)c1cccs1` (stereo not shown) [IX-247, N-(1-((5-fluoro-2-(4-(2-hydroxyethyl)piperazin-1-yl)phenyl)amino)-1-oxo-3-phenylpropan-2-yl)thiophene-2-carboxamide], the MIC amounted to 1.56 µg/mL (≈ 3.14 µM) in series [1], 3.12 µg/mL (≈ 6.29 µM) in series [2] and 0.39 µg/mL (≈ 0.785 µM) in series [3] (setting [5]).
The matching figures for `COc1ccc(F)cc1NC(=O)C(Cc1ccccc1)NC(=O)c1ccccc1C` (stereo not shown) [IX-277, N-(1-((5-fluoro-2-methoxyphenyl)amino)-1-oxo-3-phenylpropan-2-yl)-2-methylbenzamide]: 0.31 µg/mL (≈ 0.763 µM), 0.39 µg/mL (≈ 0.96 µM) and 0.39 µg/mL (≈ 0.96 µM).
For `Cn1ncc2c(NC(=O)C(Cc3ccccc3)NC(=O)c3ccccc3F)cccc21` (stereo not shown) [IX-296, 2-fluoro-N-(1-((1-methyl-1H-indazol-4-yl)amino)-1-oxo-3-phenyl-propan-2-yl)benzamide], in that order: 1.56 µg/mL (≈ 3.75 µM), 1.56 µg/mL (≈ 3.75 µM) and 0.78 µg/mL (≈ 1.87 µM).
As to `Cn1nnc2cccc(NC(=O)C(Cc3ccccc3)NC(=O)c3ccccc3F)c21` (stereo not shown) [IX-300, 2-fluoro-N-(1-((1-methyl-1H-benzo[d][1,2,3]triazol-7-yl)amino)-1-oxo-3-phenylpropan-2-yl)benzamide], the MIC in series [1] was 6.25 µg/mL (≈ 15 µM); in series [2], 6.25 µg/mL (≈ 15 µM); in series [3] (setting [5]), 1.56 µg/mL (≈ 3.74 µM).
On to `Cc1ccccc1C(=O)NC(Cc1ccccc1)C(=O)Nc1cccc2nnn(C)c12` (stereo not shown) [IX-301, 2-methyl-N-(1-((1-methyl-1H-benzo[d][1,2,3]triazol-7-yl)amino)-1-oxo-3-phenylpropan-2-yl)benzamide], for which the MIC in series [1] was determined as 6.25 µg/mL (≈ 15.1 µM); in series [2] it was 3.13 µg/mL (≈ 7.57 µM); in series [3] (setting [5]) it was 0.39 µg/mL (≈ 0.943 µM).
The matching figures for `CC1CN(c2ccc(F)cc2NC(=O)C(Cc2ccccc2)NC(=O)c2ccccc2F)CCN1` (stereo not shown) [IX-305, 2-fluoro-N-(1-((5-fluoro-2-(3-methylpiperazin-1-yl)phenyl)amino)-1-oxo-3-phenylpropan-2-yl)benzamide]: 1.56 µg/mL (≈ 3.26 µM), 12.5 µg/mL (≈ 26.1 µM) and 0.78 µg/mL (≈ 1.63 µM).
Regarding `NC1CCN(c2ccc(F)cc2NC(=O)C(Cc2ccccc2)NC(=O)c2ccccc2F)C1` (stereo not shown) [IX-306, N-(1-((2-(3-aminopyrrolidin-1-yl)-5-fluorophenyl)amino)-1-oxo-3-phenylpropan-2-yl)-2-fluorobenzamide], the MIC in series [3] (setting [5]) was 0.78 µg/mL (≈ 1.68 µM).
As to `O=C(NC(Cc1ccccc1)C(=O)Nc1cc(F)ccc1N1CC2CCCNC2C1)c1ccccc1F` (stereo not shown) [IX-307, 2-fluoro-N-(1-((5-fluoro-2-(octahydro-6H-pyrrolo[3,4-b]pyridin-6-yl)-phenyl)amino)-1-oxo-3-phenylpropan-2-yl)benzamide], the figures for the MIC in series [1], in series [2] and in series [3] (setting [5]) were 12.5 µg/mL (≈ 24.8 µM), 25 µg/mL (≈ 49.5 µM) and 6.12 µg/mL (≈ 12.1 µM), respectively.
Consider `CC1CN(c2ccc(F)cc2NC(=O)C(Cc2ccccc2)NC(=O)c2ccccc2F)CC(C)N1` (stereo not shown) [IX-308, N-(1-((2-(3,5-dimethylpiperazin-1-yl)-5-fluorophenyl)amino)-1-oxo-3-phenylpropan-2-yl)-2-fluorobenzamide], for which the MIC in series [1] was 3.13 µg/mL (≈ 6.35 µM); in series [2], less than 0.39 µg/mL; in series [3] (setting [5]), 0.39 µg/mL (≈ 0.792 µM).

Values taken from patent publication US9919998B2, “Antibacterial agents: Nα-aroyl-N-aryl-phenylalaninamides” (priority 2014, dated 2018).
